Data on twelve compounds can be found in US10093630B2, “Pyrazole compounds and methods of making and using same” (ABIDE THERAPEUTICS, INC., priority 2014, dated 2018).

Test in all cases: In vitro competitive activity-based protein profiling (gel-based, FP-Rh or HT-01 probe)
Common to all, as to assay type: biochemical

Test [1] has as its target T1, ABHD6 (Mus musculus, UniProt Q8R2Y0).
T1 construct: Proteomes (mouse brain membrane fraction or cell lysates); from tissue; host or cells: mouse brain membrane fraction (or cell lysates, not specified)
T1 sequence (Q8R2Y0 1-336): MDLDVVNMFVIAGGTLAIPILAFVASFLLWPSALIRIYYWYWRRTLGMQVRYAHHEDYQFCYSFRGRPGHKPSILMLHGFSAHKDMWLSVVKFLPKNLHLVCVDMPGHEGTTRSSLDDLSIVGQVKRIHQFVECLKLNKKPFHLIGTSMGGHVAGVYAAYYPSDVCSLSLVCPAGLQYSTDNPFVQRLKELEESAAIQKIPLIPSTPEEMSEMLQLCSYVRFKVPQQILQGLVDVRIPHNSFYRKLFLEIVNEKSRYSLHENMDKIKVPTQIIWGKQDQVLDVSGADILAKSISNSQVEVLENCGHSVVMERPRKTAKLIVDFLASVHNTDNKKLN
Particulars: for inhibition at 10 µM: 10 μM inhibitor, read-out: % Inhibition at 10 μM, C = ABHD6; for inhibition at 1 µM: 1 μM inhibitor, read-out: % Inhibition at 1 μM, C = ABHD6; for IC50: mouse brain membrane fraction or cell lysates, 30 min preincubation at 37° C., read-out: Mouse (IC50 value, nM) ABHD6. An outline of the steps:
(§1)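 Steps: inhibitor dilutions + proteome (1.0 mg/mL), 30 min, 37° C; add FP-Rh or HT-01 (50 μM DMSO stock), 30 min, 37° C; quench in SDS buffer; SDS-PAGE; gel imaging; band densitometry.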

In test [2] the target is T2, FAAH (Mus musculus, UniProt O08914).
T2 construct: Proteomes (mouse brain membrane fraction or cell lysates); from tissue; host or cells: mouse brain membrane fraction (or cell lysates, not specified)
T2 sequence (O08914 1-579): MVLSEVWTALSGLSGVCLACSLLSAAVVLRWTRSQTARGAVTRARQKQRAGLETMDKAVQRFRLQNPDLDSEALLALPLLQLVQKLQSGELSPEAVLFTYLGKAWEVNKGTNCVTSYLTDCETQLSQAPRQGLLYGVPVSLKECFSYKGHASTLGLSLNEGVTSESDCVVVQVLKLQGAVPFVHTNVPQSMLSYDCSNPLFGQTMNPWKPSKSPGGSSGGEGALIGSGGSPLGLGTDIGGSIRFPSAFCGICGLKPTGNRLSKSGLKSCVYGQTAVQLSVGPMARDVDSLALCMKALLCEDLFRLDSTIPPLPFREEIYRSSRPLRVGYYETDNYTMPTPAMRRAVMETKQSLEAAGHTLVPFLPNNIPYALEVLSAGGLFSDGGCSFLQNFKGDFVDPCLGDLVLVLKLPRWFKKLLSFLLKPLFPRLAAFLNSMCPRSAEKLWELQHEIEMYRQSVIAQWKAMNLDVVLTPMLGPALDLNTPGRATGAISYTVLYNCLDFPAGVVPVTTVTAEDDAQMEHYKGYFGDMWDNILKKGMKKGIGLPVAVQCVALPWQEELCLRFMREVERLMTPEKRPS
As to conditions: for inhibition at 10 µM: 10 μM inhibitor, read-out: % Inhibition at 10 μM, B = FAAH; for inhibition at 1 µM: 1 μM inhibitor, read-out: % Inhibition at 1 μM, B = FAAH; for IC50: mouse brain membrane fraction or cell lysates, 30 min preincubation at 37° C., read-out: Mouse (IC50 value, nM) FAAH. An outline of the steps:
as §1

Test [3] deals with T3, MAGL (Mus musculus, UniProt O35678).
T3 construct: Proteomes (mouse brain membrane fraction or cell lysates); from tissue; host or cells: mouse brain membrane fraction (or cell lysates, not specified)
T3 sequence (O35678 1-303): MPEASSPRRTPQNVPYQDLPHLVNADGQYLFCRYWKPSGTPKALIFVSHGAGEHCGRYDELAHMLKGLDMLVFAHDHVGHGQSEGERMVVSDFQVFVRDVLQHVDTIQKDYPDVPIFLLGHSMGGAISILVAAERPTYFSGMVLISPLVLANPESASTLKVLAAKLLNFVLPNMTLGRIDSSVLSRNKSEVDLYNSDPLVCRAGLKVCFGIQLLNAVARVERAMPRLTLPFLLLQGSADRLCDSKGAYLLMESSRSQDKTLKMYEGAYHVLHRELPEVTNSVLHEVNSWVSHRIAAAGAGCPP
As to conditions: for inhibition at 10 µM: 10 μM inhibitor; for inhibition at 1 µM: 1 μM inhibitor; for IC50: mouse brain membrane fraction or cell lysates, 30 min preincubation at 37° C., read-out: Mouse (IC50 value, nM) MAGL. An outline of the steps: as §1

The target in test [4] is T4, PLA2G7 (Mus musculus, UniProt Q60963).
T4 construct: Proteomes (mouse brain membrane fraction or cell lysates); from tissue; host or cells: mouse brain membrane fraction (or cell lysates, not specified)
T4 sequence (Q60963 22-440): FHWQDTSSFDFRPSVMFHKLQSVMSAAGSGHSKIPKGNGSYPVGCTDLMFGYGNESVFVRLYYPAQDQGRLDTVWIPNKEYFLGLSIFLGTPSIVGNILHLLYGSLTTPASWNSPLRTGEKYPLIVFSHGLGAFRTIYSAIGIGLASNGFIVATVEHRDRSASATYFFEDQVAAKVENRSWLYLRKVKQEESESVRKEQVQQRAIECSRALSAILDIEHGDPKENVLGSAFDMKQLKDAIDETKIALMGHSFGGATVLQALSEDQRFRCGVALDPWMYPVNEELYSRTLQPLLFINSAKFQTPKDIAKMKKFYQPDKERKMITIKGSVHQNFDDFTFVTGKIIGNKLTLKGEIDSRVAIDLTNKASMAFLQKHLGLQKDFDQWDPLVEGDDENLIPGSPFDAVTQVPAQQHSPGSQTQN
Particulars: for inhibition at 10 µM: 10 μM inhibitor, read-out: % Inhibition at 10 μM, D = PLA2G7; for inhibition at 1 µM: 1 μM inhibitor, read-out: % Inhibition at 1 μM, D = PLA2G7. An outline of the steps:
as §1

Read-outs that look alike come from different tables or passages of the source. Bounds are passed on as bounds.

For orientation: inhibition means the change of the read-out against control, counted positive when it falls. For the compound `CC(=O)N1CCCN(C(=O)n2cc(C)cn2)CC1` [Example 165, 1-(4-(4-Methyl-1H-pyrazole-1-carbonyl)-1,4-diazepan-1-yl)ethanone], the inhibition at 10 µM is under 25% in test [1], 25 to 75% in test [2], under 25% in test [3] and under 25% in test [4].
As to `N#Cc1cnn(C(=O)NCCCCc2ccccc2)c1` [Example 36, 4-Cyano-N-(4-phenylbutyl)-1H-pyrazole-1-carboxamide], the inhibition at 1 µM in test [1] was under 25%; in test [2] it was 25 to 75%; in test [3], under 25%; in test [4] it was under 25%. Further, the inhibition at 10 µM in test [1] is 25 to 75%; in test [2], over 75%; in test [3], 25 to 75%; in test [4], under 25%.
As to `Cc1cnn(C(=O)NCCCCc2ccccc2)c1` [Example 35, 4-Methyl-N-(4-phenylbutyl)-1H-pyrazole-1-carboxamide], the inhibition at 10 µM in test [1], in test [2], in test [3] and in test [4] was under 25% throughout.
By IC50 is commonly meant the concentration that inhibits the measured activity by half. Take `O=C(c1cnn(C(=O)N2CCN(C(c3ccc(Cl)cc3)c3ccc(Cl)cc3)CC2)c1)N1CCOCC1` [Example 67, (4-(Bis(4-chlorophenyl)methyl)piperazin-1-yl)(4-(morpholine-4-carbonyl)-1H-pyrazol-1-yl)methanone]: the inhibition at 1 µM in test [1] was over 75%; in test [2], under 25%; in test [3], over 75%; in test [4], over 75%. Besides, the inhibition at 10 µM was over 75% in test [1], 25 to 75% in test [2], over 75% in test [3] and over 75% in test [4]. For the same compound, the figures for the 50% inhibitory concentration (IC50) in test [1], in test [2] and in test [3] were 100 to 1000 nM, over 1000 nM and 100 to 1000 nM, respectively.
`CN(CCN(C)S(C)(=O)=O)C(=O)n1cc(C#N)cn1` [Example 197, 4-Cyano-N-methyl-N-(2-(N-methylmethylsulfonamido)ethyl)-1H-pyrazole-1-carboxamide]: the inhibition at 1 µM was under 25% in test [1], 25 to 75% in test [2], under 25% in test [3] and under 25% in test [4]. The inhibition at 10 µM in test [1] was 25 to 75%; in test [2], over 75%; in test [3], under 25%.
Consider `O=C(c1cnn(C(=O)N2CCN(Cc3ccncn3)CC2)c1)N1CCC1` [Example 90, Azetidin-1-yl(1-(4-(pyrimidin-4-ylmethyl)piperazine-1-carbonyl)-1H-pyrazol-4-yl)methanone], for which the inhibition at 1 µM in test [1] and in test [4] was under 25% each time. For the same compound, the inhibition at 10 µM in test [1] was over 75%; in test [2] it was 25 to 75%; in test [3] it was under 25%; in test [4], over 75%.
For `N#Cc1cnn(C(=O)N2CCN(Cc3ccc(OCc4ccccc4)cc3)CC2)c1` [Example 21, 1-(4-(4-(Benzyloxy)benzyl)piperazine-1-carbonyl)-1H-pyrazole-4-carbonitrile], the inhibition at 1 µM in test [1] is over 75%; in test [2] it was over 75%; in test [3] it was over 75%; in test [4] it was under 25%. Moreover, the inhibition at 10 µM in test [1], in test [2], in test [3] and in test [4] was over 75% throughout. The IC50 in test [1], in test [2] and in test [3] was under 100 nM throughout.
As for `O=C(c1cnn(C(=O)N2CCN(Cc3nccs3)CC2)c1)N1CCC1` [Example 91, Azetidin-1-yl(1-(4-(thiazol-2-ylmethyl)piperazine-1-carbonyl)-1H-pyrazol-4-yl)methanone], the inhibition at 1 µM in test [1] and in test [4] was under 25% each time. In addition, the inhibition at 10 µM in test [1] is over 75%; in test [2] it was over 75%; in test [3], under 25%; in test [4] it was over 75%. Also, in test [2], the IC50 was over 1000 nM.
Take `Cc1cc(-c2ccccc2)ccc1CN1CCN(C(=O)n2cc(C(F)(F)F)cn2)CC1` [Example 142, (4-((3-Methylbiphenyl-4-yl)methyl)piperazin-1-yl)(4-(trifluoromethyl)-1H-pyrazol-1-yl)methanone]: the inhibition at 1 µM in test [1], in test [2], in test [3] and in test [4] was over 75% throughout. For the same compound, the inhibition at 10 µM in test [1], in test [2], in test [3] and in test [4] was over 75% each time. The IC50 is 100 to 1000 nM in test [1], under 100 nM in test [2] and under 100 nM in test [3].
Turning to `NC(=O)c1cnn(C(=O)N2CCN(Cc3cccc(Oc4ccccc4)c3)CC2)c1` [Example 286, 1-(4-(3-phenoxybenzyl)piperazine-1-carbonyl)-1H-pyrazole-4-carboxamide], the inhibition at 1 µM in test [1] (gel-based competitive ABPP) is over 75%; in test [2] (gel-based competitive ABPP) it was over 75%; in test [3] (gel-based competitive ABPP), over 75%; in test [4] (gel-based competitive ABPP) it was 25 to 75%. Moreover, the 50% inhibitory concentration (IC50) is under 100 nM in test [1]; under 100 nM in test [2]; under 100 nM in test [3]; 100 to 1000 nM in test [4] (mouse brain membrane fraction or cell lysates, 30 min preincubation at 37° C.).
As to `Cc1cnn(C(=O)N2CCN(Cc3cccc(Oc4ccccc4)c3)CC2)c1` [Example 294, (4-Methyl-1H-pyrazol-1-yl)(4-(3-phenoxybenzyl)piperazin-1-yl)methanone], the inhibition at 1 µM was over 75% in test [1] (gel-based competitive ABPP), over 75% in test [2] (gel-based competitive ABPP), over 75% in test [3] (gel-based competitive ABPP) and under 25% in test [4] (gel-based competitive ABPP).
With `N#Cc1cnn(C(=O)NCCCc2ccccc2)c1` [Example 33, 4-Cyano-N-(3-phenylpropyl)-1H-pyrazole-1-carboxamide], the inhibition at 1 µM in test [1], in test [2], in test [3] and in test [4] was under 25% throughout. For the same compound, the inhibition at 10 µM in test [1] was under 25%; in test [2], over 75%; in test [3], under 25%; in test [4], under 25%.
